Experimental data taken from US10316017B2, “COT modulators and methods of use thereof” (Gilead Sciences, Inc., priority 2015, dated 2019).
Read-outs that look alike come from different tables or passages of the source.

Tests used:
[1] = tested on: TNFα production in LPS-stimulated human monocytes; assay: Cot Monocyte TNFα Cell Based Assay; settings: Homo sapiens, Monocyte, read-out: EC50 TNF
How it was run: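 Cells at 5,000/well were pretreated with compound for 1 h at 37 °C (0.5% DMSO final), then stimulated with 50 pg/ml LPS for 4 h at 37 °C. Supernatant TNFα was measured by two-antibody TR-FRET after overnight room-temperature incubation; values are percent of control between unstimulated and stimulated wells.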

[2] = molecular target: T1, human Cot catalytic domain (30-397 amino acids) (Homo sapiens, UniProt P41279); assay: High Throughput Cot Biochemical Assay (KinEASE TR-FRET); settings: read-out: IC50 HTRF
T1 construct: Purified recombinant human Cot catalytic domain (30-397 amino acids) was purchased from Cama Biosciences; purchased Cama Biosciences (so in the source)
T1 sequence (P41279 30-397): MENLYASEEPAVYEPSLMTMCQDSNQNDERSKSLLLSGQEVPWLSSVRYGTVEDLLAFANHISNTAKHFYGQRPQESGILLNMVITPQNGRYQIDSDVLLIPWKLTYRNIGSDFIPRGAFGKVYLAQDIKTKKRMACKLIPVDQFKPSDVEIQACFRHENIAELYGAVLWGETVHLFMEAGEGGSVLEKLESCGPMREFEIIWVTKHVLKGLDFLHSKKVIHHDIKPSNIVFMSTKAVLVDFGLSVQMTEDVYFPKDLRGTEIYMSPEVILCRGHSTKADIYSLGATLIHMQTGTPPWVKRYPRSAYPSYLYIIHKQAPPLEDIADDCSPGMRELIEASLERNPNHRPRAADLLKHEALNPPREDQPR
How it was run: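 Reaction of 5 nM recombinant human Cot catalytic domain (aa 30-397) with 1 μM STK3 peptide (XL665-labeled) and 400 μM ATP in 10 mM MOPS pH 7.0, 10 mM MgOAc, 1 mM DTT, 0.5 mg/mL BSA, 0.1% DMSO. Phosphopeptide detected by TR-FRET with europium anti-phospho antibody.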

[3] = TNFα in LPS-stimulated human monocytes
[4] = Cot biochemical HTRF (KinEASE TR-FRET) assay
[5] = Cot KinEASE TR-FRET (HTRF) biochemical assay, 400 μM ATP
[6] = LPS-stimulated human monocytes, TNFα TR-FRET
[7] = Cot KinEASE TR-FRET, 400 μM ATP

Row | SMILES | EC50 [1, 3] | IC50 [2, 4] | IC50 [2, 5] | EC50 [1, 6] | IC50 [2, 7]
1 | CC(C)(C)n1cc([C@@H](Nc2cc(Cl)c3ncc(C#N)c(Nc4cnc(F)c(F)c4)c3c2)c2ccc(F)cc2)nn1 [Example 457, (S)-6-(((1-(tert-butyl)-1H-1,2,3-triazol-4-yl)(4-fluorophenyl)methyl)amino)-8-chloro-4-((5,6-difluoropyridin-3-yl)amino)quinoline-3-carbonitrile] | 616 nM | 43 nM | – | – | –
2 | CC(C)(C)N1CCC(n2cc([C@@H](Nc3cc(Cl)c4ncc(C#N)c(Nc5ccc(F)c(Cl)c5)c4c3)c3cccc(C=O)c3)nn2)CC1 [Compound 42] | 138 nM | – | 5 nM | – | –
3 | N#Cc1cnc2c(Cl)cc(N[C@@H](c3ccccc3)c3cn(C4CCCC4)nn3)cc2c1Nc1ccc(Cl)c(Cl)c1F [Example 534, (S)-8-chloro-6-(((1-cyclopentyl-1H-1,2,3-triazol-4-yl)(phenyl)methyl)amino)-4-((3,4-dichloro-2-fluorophenyl)amino) quinoline-3-carbonitrile] | 3150 nM | 57 nM | – | – | –
4 | Cc1c(-c2cn(C)cn2)cccc1[C@H](Nc1cc(C#N)c2ncc(C#N)c(NCC(C)(C)C)c2c1)c1cn(C2(C(F)(F)F)CC2)nn1 [Example 1145, (S)-6-(((2-methyl-3-(1-methyl-1H-imidazol-4-yl)phenyl)(1-(1-(trifluoromethyl)cyclopropyl)-1H-1,2,3-triazol-4-yl)methyl)amino)-4-(neopentylamino)quinoline-3,8-dicarbonitrile] | – | – | – | 99 nM | 5 nM
5 | [2H][C@](Nc1cc(C)c2ncc(C#N)c(N[C@H](CC)c3ccccc3)c2c1)(c1ccc(F)cc1)c1cn(C2CC2)nn1 [Example 221, 6-(((S)-(1-cyclopropyl-1H-1,2,3-triazol-4-yl)(4-fluorophenyl)methyl-d)amino)-8-methyl-4-(((R)-1-phenylpropyl)amino)quinoline-3-carbonitrile] | 2520 nM | – | 244 nM | – | –
6 | CC(=O)N(C)c1cccc([C@H](Nc2cc(Cl)c3ncc(C#N)c(Nc4cnc(F)c(F)c4)c3c2)c2cn(CC(F)(F)F)nn2)c1 [Example 510, (S)-N-(3-(((8-chloro-3-cyano-4-((5,6-difluoropyridin-3-yl)amino)quinolin-6-yl)amino)(1-(2,2,2-trifluoroethyl)-1H-1,2,3-triazol-4-yl)methyl)phenyl)-N-methylacetamide] | 321 nM | 5 nM | – | – | –
7 | N#Cc1cnc2c(Cl)cc(N[C@@H](c3ccc(F)cc3)c3c[nH]nn3)cc2c1NCc1cccs1 [Example 418, (S)-8-chloro-6-(((4-fluorophenyl)(1H-1,2,3-triazol-4-yl)methyl)amino)-4-((thiophen-2-ylmethyl)amino)quinoline-3-carbonitrile] | 4170 nM | 361 nM | – | – | –
8 | N#Cc1cnc2c(Cl)cc(N[C@H](c3c[nH]nn3)c3c(F)cc(F)cc3F)cc2c1Nc1cnc(F)c(F)c1 [Example 503, (S)-6-(((1H-1,2,3-triazol-4-yl)(2,4,6-trifluorophenyl)methyl)amino)-8-chloro-4-((5,6-difluoropyridin-3-yl)amino)quinoline-3-carbonitrile] | 1690 nM | 98 nM | – | – | –
9 | N#Cc1cnc2c(Cl)cc(N[C@@H](c3ccccc3)c3cn([C@@H]4CCN(C5COC5)C[C@H]4O)nn3)cc2c1Nc1cccc(Cl)c1 [Example 517, 8-chloro-4-((3-chlorophenyl)amino)-6-(((S)-(1-((3R,4R)-3-hydroxy-1-(oxetan-3-yl)piperidin-4-yl)-1H-1,2,3-triazol-4-yl)(phenyl)methyl)amino) quinoline-3-carbonitrile] | 255 nM | 10 nM | – | – | –
10 | [2H][C@](Nc1cc(Cl)c2ncc(C#N)c(Nc3cnc(F)c(F)c3)c2c1)(c1ccc(Cl)cc1)c1c[nH]nn1 [Example 387, (S)-8-chloro-6-(((4-chlorophenyl)(1H-1,2,3-triazol-4-yl)methyl-d)amino)-4-((5,6-difluoropyridin-3-yl)amino)quinoline-3-carbonitrile] | 809 nM | – | 50 nM | – | –
11 | CC(C)(C)N1CCC(n2cc([C@@H](Nc3cc(Cl)c4ncc(C#N)c(Nc5c(F)cccc5F)c4c3)c3ccc(Cl)cc3)nn2)CC1 [Example 653, (S)-6-(((1-(1-(tert-butyl)piperidin-4-yl)-1H-1,2,3-triazol-4-yl)(4-chlorophenyl)methyl)amino)-8-chloro-4-((2,6-difluorophenyl)amino)quinoline-3-carbonitrile] | 9280 nM | 160 nM | – | – | –
12 | Cc1c(-c2ccnnc2)cccc1[C@H](Nc1cc(Cl)c2ncc(C#N)c(NCC(C)(C)C)c2c1)c1cn(C2(C(F)(F)F)CC2)nn1 [Example 1121, (S)-8-chloro-6-(((2-methyl-3 (pyridazin-4-yl)phenyl)(1-(1-(trifluoromethyl)cyclopropyl)-1H-1,2,3-triazol-4-yl)methyl)amino)-4-(neopentylamino)quinoline-3-carbonitrile] | – | – | – | 59 nM | 2 nM

The next lines start with the values.

Row | EC50 [1, 3] | IC50 [2, 4] | IC50 [2, 5] | EC50 [1, 6] | IC50 [2, 7] | SMILES
13 | 151 nM | – | 13 nM | – | – | [2H][C@@](Nc1cc(Cl)c2ncc(C#N)c(NCC(C)(C)C)c2c1)(c1cn(C2CC2)nn1)c1ccccc1Cl [Example 343, (S)-8-chloro-6-(((2-chlorophenyl)(1-cyclopropyl-1H-1,2,3-triazol-4-yl)methyl-d)amino)-4-(neopentylamino) quinoline-3-carbonitrile]
14 | 287 nM | – | 26 nM | – | – | [2H][C@](Nc1cc(Cl)c2ncc(C#N)c(NCC(C)(C)C)c2c1)(c1cn(CC2CCO2)nn1)c1ccccc1Cl (stereo partly shown) [Example 90, 8-chloro-6-(((2-chlorophenyl) (1-(oxetan-2-ylmethyl)-1H-1,2,3-triazol-4-yl)methyl-d)amino)-4-(neopentylamino) quinoline-3-carbonitrile]
15 | – | – | – | 456 nM | 2 nM | CC(C)(C)CNc1c(C#N)cnc2c(Cl)cc(N[C@@H](c3cccc(-n4cccn4)c3)c3cn(C4CC4)nn3)cc12 [Example 1033, (S)-6-(((3-(1H-pyrazol-1-yl)phenyl)(1-cyclopropyl-1H-1,2,3-triazol-4-yl)methyl)amino)-8-chloro-4-(neopentylamino)quinoline-3-carbonitrile]
16 | – | – | – | 116 nM | 7 nM | CC(C)(C)CNc1c(C#N)cnc2c(C#N)cc(N[C@H](c3cn(C4(C)CC4)nn3)c3ccccc3Cl)cc12 [Example 962, (S)-6-(((2-chlorophenyl)(1-(1-methylcyclopropyl)-1H-1,2,3-triazol-4-yl)methyl)amino)-4-(neopentylamino)quinoline-3,8-dicarbonitrile]
17 | – | – | – | 177 nM | 58 nM | CC(C)(C)CNc1c(C#N)cnc2c(F)cc(N[C@H](c3cn(C4(C#N)CC4)nn3)c3ccccc3Cl)cc12 [Example 1000, (S)-6-(((2-chlorophenyl)(1-(1-cyanocyclopropyl)-1H-1,2,3-triazol-4-yl)methyl)amino)-8-fluoro-4-(neopentylamino)quinoline-3-carbonitrile]
18 | 3520 nM | 131 nM | – | – | – | CC[C@@H](C)Nc1c(C#N)cnc2c(Cl)cc(N[C@@H](c3ccccc3)c3cn(C4CCN(C(C)(C)C)CC4)nn3)cc12 [Example 590, 4-(((R)-sec-butyl)amino)-6-(((S)-(1-(1-(tert-butyl)piperidin-4-yl)-1H-1,2,3-triazol-4-yl)(phenyl)methyl)amino)-8-chloroquinoline-3-carbonitrile]
19 | 54 nM | – | 2 nM | – | – | [2H][C@@](Nc1cc(C#N)c2ncc(C#N)c(NC3CCOCC3(C)C)c2c1)(c1cn(C2CC2)nn1)c1ccccc1Cl (stereo partly drawn) [Example 128, 6-(((S)-(2-chlorophenyl) (1-cyclopropyl-1H-1,2,3-triazol-4-yl)methyl-d)amino)-4-((3,3-dimethyltetrahydro-2H-pyran-4-yl)amino)quinoline-3,8-dicarbonitrile]
20 | 348 nM | – | 36 nM | – | – | [2H][C@](Nc1cc(Cl)c2ncc(C#N)c(N[C@@H]3C[C@H]3CC)c2c1)(c1ccc(F)cc1)c1cn(C2CC2)nn1 [Example 155, 8-chloro-6-(((S)-(1-cyclopropyl-1H-1,2,3-triazol-4-yl)(4-fluorophenyl)methyl-d)amino)-4-(((1R,2R)-2-ethylcyclopropyl)amino)quinoline-3-carbonitrile]
21 | 12200 nM | 2830 nM | – | – | – | C[C@H](Nc1c(C#N)cnc2c(Cl)cc(N[C@@H](c3ccc(Cl)cc3)c3cn(C4CCN(C(C)(C)C)CC4)nn3)cc12)c1ccccc1 [Example 705, 6-(((S)-(1-(1-(tert-butyl)piperidin-4-yl)-1H-1,2,3-triazol-4-yl)(4-chlorophenyl)methyl)amino)-8-chloro-4-(((S)-1-phenylethyl)amino)quinoline-3-carbonitrile]
22 | 269 nM | – | 3 nM | – | – | CC(C)(C)CNc1c(C#N)cnc2c(C#N)cc(N[C@@H](c3cccc(C(=O)N4CC(F)C4)c3)c3cn(C4CC4)nn3)cc12 [Compound 58]
23 | 738 nM | 41 nM | – | – | – | CC(C)(C)N1CCC(n2cc([C@@H](Nc3cc(Cl)c4ncc(C#N)c(Nc5cccc(Br)c5)c4c3)c3ccc(Cl)cc3)nn2)CC1 [Example 757, (S)-4-((3-bromophenyl)amino)-6-(((1-(1-(tert-butyl)piperidin-4-yl)-1H-1,2,3-triazol-4-yl)(4-chlorophenyl)methyl)amino)-8-chloroquinoline-3-carbonitrile]
